Assay results from patent publication US20150203924A1, “[…] FOR HERBICIDE RESISTANCE IN PLANTS” (PURDUE RESEARCH FOUNDATION, priority 2013, published 2015).

Assays:
[1] = tested on: Ambrosia trifida L. (Giant ragweed); experiment: Foliar glyphosate treatment of whole plants: fresh weight and visual injury; assay type: in vivo
From the text: Significance (<0.05) between populations (within rates) is indicated by letters (a, b). […] Significance (<0.05) between rates (within populations) is indicated by letters (a, b, c).
Foliar application of herbicide solution was applied using a compressed-air bench top track sprayer at a pressure of 249 kPa and a volume of 187 L of spray solution ha-1. […] All plants were at the third node growth stage at the time of treatment.

[2] = tested on: Ambrosia trifida L. (Giant ragweed); experiment: Chlorophyll fluorescence measurements / rapid necrosis of mature leaves after glyphosate treatment; assay type: in vivo; settings: 1x field rate glyphosate
Protocol: To quantify early physiological reactions related to this resistance mechanism, a method was developed using chlorophyll fluorescence measurements to determine photosynthetic activity. […] Treatments at each time point consisted of glyphosate-resistant and glyphosate-sensitive A. trifida untreated and treated leaves.
In an embodiment, to measure fluorescence the maximum quantum efficiency of photosystem II (Fv/Fm) is determined using an Imaging-PAM fluorometer IMAG-MAX/GS with a mounted LED-Array Illumination Unit IMAG-MAX/L and CCD-Camera (Heinz Walz GmbH, 91090 Effeltrich, Germany) along with ImagingWin software. Briefly, dark acclimated plants are exposed to a short saturating light pulse to maximally reduce the QA pool and where fluorescence is increased to maximum values (Fm) and this is followed by a weak non-actinic modulated measuring light to determine the minimal level of fluorescence (F0) (Oxborough, 2004).

EPSPS = EPSPS sensitivity to glyphosate challenge; assay type: biochemical, Ambrosia trifida
[3] = tested on: Ambrosia trifida L. (Giant ragweed); experiment: 14C-glyphosate uptake and translocation; assay type: in vivo; settings: two mature leaves treated with 14C-glyphosate
From the text: In the study, the treated leaf included two mature leaves treated with ^14C-glyphosate. Mobilized distribution includes untreated mature leaves, meristems and roots.

[4] = tested on: Ambrosia trifida L. (Giant ragweed); experiment: 31P NMR imaging of glyphosate infiltrated leaves; assay type: in vivo
[5] = tested on: Ambrosia trifida L. (Giant ragweed); experiment: H2O2 accumulation in glyphosate treated leaves by DAB staining; assay type: in vivo
Protocol: In an embodiment, the H2O2 presence is visually detected after 3,3′-diaminobenzidine (DAB) staining using procedures described by Thordal-Christensen et al., ([…]). […] At each harvested time, leaf discs are floated in a solution of DAB-Hydrochloric acid (HCl) (1 mg/ml) (Sigma, St. Louis, Mo.) in a beaker at room temperature and allowed to absorb the solution through the cut ends. After 3 hours of incubation, leaf discs are decolorized by boiling in 90% ethanol for ten minutes to remove chlorophyll, before visual examination. Brown precipitates form at sites of H2O2 accumulation and data collected will be by visual detection of H2O2 accumulation as noted by intensity of brown precipitates on treated leave discs. The hypersensitive reaction (HR) has been used as a visual marker of biotic interactions and induction of pathogen response (PR) genes (S) but this has been also shown in plant responses to abiotic stresses such as excess excitation energy (EEE) (Muhlenbock et al., 2008).

[6] = tested on: Ambrosia trifida L. (Giant ragweed); experiment: Tissue specific (differential exposure) glyphosate treatment, translocation; settings: uncovered portions sprayed with 0.7 kg ae/ha
[7] = three weeks after treatment, 1x glyphosate field rate

**Q.** Which “visual plant injury of resistant plants compared to sensitive plants” value ([1]; 1x, 2x, 4x treatment levels, after twenty-one days) does the source give for `O=C(O)CNCP(=O)(O)O` [glyphosate, N-(phosphonomethyl)glycine] here?
**A.** Its value is “decreased visual injury compared to the sensitive plants”.

**Q.** And the “visual injury rating (% dead), resistant plants compared to sensitive plants” value ([1]; 3 weeks after treatment, n=63)?
**A.** The value was “much lower rating of % dead compared to the sensitive plants”.

**Q.** What about the “plant response, glyphosate-resistant plant” value [1, 7] of the same molecule?
**A.** Its value is “recovered from the glyphosate treatment”.

**Q.** What about the “plant response, glyphosate-sensitive plant” value [1, 7] of the same molecule?
**A.** The value was “extremely decline”.

**Q.** And the “fresh weight of resistant plants compared to sensitive plants” value ([1]; whole plant tissue 21 days after treatment, 1x=0.7, 2x=1.4, 4x=2.8 kg ae ha-1)?
**A.** Its value is “increased fresh weight at all treatment levels compared to the sensitive plants”.

**Q.** And the “time to rapid necrosis in mature leaves, glyphosate-resistant plants” value [2]?
**A.** The value was no more than 12 h.

**Q.** And the “EPSPS sensitivity to glyphosate challenge, glyphosate-resistant vs glyphosate-sensitive plants” value (EPSPS)?
**A.** Its value is “no difference”.

**Q.** And the “absorbed glyphosate translocated, glyphosate resistant plants” value [3]?
**A.** The value was 28%.

**Q.** And the “absorbed glyphosate translocated, glyphosate-sensitive plants” value [3]?
**A.** The value was 54%.

**Q.** And the “time to rapid cell death, glyphosate-resistant plants” value [4]?
**A.** Its value is no more than 16 h.

**Q.** And the “cell death, glyphosate-sensitive plants” value ([4]; within 16 hours)?
**A.** The value was “limited cell death”.

**Q.** What about the “H2O2 production, glyphosate sensitive leaves” value [5] of the same molecule?
**A.** Its value is “no H2O2 production”.

**Q.** And the “time to significant H2O2 accumulation, mature leaves of glyphosate-resistant plants” value [5]?
**A.** The value was no more than 2 h.

**Q.** And the “translocation of glyphosate away from treated tissues, glyphosate-resistant plants” value [6]?
**A.** Its value is “did not translocate glyphosate”.

**Q.** What about the “translocation of glyphosate away from treated tissues, glyphosate-sensitive plants” value [6] of the same molecule?
**A.** Its value is “glyphosate-sensitive plants did”.
